ChEMBL document CHEMBL5465560, “Selectivity Literature for EUbOPEN Chemogenomic Library” (2024)

Key:
[1] = test system: Tyrosine-protein kinase ABL1 (Homo sapiens), P00519 [H396P]; test: Selectivity interaction (KinomeScan (DiscoverX)) EUB0000229b ABL1; settings: at 1 µM
[2] = target: Serine/threonine-protein kinase OSR1 (Homo sapiens) (UniProt O95747); test: Selectivity interaction (KinomeScan (DiscoverX)) EUB0000595a OXSR1; settings: at 10 µM
[3] = target: T1, Serine/threonine-protein kinase MAK (Homo sapiens) (UniProt P20794); test: Selectivity interaction (KinomeScan (DiscoverX)) EUB0000045b MAK
T1 sequence (whole entry): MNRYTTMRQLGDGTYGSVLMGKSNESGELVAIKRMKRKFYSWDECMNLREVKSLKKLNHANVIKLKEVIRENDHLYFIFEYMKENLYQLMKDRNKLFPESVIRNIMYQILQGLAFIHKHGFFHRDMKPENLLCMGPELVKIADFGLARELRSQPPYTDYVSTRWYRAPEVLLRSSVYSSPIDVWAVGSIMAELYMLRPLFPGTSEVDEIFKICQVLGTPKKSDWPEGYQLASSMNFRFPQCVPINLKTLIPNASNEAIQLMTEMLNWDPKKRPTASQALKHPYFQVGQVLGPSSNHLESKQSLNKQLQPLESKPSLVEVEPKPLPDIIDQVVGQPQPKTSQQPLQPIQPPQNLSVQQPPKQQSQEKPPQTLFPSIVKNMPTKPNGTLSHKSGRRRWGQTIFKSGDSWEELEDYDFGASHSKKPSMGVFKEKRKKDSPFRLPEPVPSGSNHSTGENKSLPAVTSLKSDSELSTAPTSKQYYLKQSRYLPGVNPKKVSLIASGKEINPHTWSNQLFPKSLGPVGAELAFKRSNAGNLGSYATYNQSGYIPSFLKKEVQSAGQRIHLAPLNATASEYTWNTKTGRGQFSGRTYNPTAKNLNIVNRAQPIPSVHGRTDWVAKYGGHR

[4] = target: RAC-gamma serine/threonine-protein kinase (Homo sapiens, UniProt Q9Y243); test: Selectivity interaction (KinomeScan (DiscoverX)) EUB0001079a AKT3; settings: at 1 µM
Sequence of RAC-gamma serine/threonine-protein kinase (Q9Y243 whole entry): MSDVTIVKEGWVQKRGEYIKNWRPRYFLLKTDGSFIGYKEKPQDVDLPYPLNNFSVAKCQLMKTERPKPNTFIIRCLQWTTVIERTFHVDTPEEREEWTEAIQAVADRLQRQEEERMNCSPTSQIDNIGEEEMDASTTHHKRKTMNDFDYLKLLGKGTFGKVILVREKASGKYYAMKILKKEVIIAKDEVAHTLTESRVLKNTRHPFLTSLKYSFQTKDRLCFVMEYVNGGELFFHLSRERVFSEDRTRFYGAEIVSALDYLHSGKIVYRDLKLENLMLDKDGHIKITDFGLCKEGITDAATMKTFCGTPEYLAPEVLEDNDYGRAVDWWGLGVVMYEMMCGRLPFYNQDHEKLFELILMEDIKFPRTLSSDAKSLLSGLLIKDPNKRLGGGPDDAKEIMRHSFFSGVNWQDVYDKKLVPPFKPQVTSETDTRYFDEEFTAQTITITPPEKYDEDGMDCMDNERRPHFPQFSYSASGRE

[5] = target: T2, Phosphatidylinositol 5-phosphate 4-kinase type-2 beta (Homo sapiens) (UniProt P78356); test: Selectivity interaction (KinomeScan (DiscoverX)) EUB0000666a PIP4K2B; settings: at 10 µM
T2 sequence (whole entry): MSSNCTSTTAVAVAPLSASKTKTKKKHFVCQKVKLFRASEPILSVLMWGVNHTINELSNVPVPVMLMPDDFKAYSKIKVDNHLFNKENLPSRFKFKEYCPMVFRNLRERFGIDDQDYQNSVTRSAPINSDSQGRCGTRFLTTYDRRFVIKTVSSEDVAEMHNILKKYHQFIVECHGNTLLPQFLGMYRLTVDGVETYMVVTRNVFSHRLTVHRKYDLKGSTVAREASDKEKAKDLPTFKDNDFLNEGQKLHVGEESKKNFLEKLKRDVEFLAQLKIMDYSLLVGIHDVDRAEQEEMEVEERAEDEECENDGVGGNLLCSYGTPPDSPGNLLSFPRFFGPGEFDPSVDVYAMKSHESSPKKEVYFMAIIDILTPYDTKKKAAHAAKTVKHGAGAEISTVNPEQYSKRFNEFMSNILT

[6] = target: T3, cAMP-dependent protein kinase catalytic subunit PRKX (Homo sapiens) (UniProt P51817); test: Selectivity interaction (KinomeScan (DiscoverX)) EUB0000666a PRKX; settings: at 10 µM
T3 sequence (whole entry): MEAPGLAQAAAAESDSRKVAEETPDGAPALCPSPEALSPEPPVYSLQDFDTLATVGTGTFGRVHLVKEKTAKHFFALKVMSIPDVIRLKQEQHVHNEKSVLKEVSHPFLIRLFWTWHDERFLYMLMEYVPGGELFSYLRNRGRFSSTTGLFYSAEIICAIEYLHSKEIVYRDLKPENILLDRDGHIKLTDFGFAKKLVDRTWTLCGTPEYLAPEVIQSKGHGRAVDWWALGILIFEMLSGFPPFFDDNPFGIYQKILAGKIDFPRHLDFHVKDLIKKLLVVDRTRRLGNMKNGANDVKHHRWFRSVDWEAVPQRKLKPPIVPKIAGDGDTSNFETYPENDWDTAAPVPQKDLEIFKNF

[7] = test system: Epidermal growth factor receptor (Homo sapiens), P00533 [UNDEFINED MUTATION]; settings: at 10 µM
Sequence of Epidermal growth factor receptor (Homo sapiens), P00533 [UNDEFINED MUTATION] (P00533 whole entry, looked up, change not shown): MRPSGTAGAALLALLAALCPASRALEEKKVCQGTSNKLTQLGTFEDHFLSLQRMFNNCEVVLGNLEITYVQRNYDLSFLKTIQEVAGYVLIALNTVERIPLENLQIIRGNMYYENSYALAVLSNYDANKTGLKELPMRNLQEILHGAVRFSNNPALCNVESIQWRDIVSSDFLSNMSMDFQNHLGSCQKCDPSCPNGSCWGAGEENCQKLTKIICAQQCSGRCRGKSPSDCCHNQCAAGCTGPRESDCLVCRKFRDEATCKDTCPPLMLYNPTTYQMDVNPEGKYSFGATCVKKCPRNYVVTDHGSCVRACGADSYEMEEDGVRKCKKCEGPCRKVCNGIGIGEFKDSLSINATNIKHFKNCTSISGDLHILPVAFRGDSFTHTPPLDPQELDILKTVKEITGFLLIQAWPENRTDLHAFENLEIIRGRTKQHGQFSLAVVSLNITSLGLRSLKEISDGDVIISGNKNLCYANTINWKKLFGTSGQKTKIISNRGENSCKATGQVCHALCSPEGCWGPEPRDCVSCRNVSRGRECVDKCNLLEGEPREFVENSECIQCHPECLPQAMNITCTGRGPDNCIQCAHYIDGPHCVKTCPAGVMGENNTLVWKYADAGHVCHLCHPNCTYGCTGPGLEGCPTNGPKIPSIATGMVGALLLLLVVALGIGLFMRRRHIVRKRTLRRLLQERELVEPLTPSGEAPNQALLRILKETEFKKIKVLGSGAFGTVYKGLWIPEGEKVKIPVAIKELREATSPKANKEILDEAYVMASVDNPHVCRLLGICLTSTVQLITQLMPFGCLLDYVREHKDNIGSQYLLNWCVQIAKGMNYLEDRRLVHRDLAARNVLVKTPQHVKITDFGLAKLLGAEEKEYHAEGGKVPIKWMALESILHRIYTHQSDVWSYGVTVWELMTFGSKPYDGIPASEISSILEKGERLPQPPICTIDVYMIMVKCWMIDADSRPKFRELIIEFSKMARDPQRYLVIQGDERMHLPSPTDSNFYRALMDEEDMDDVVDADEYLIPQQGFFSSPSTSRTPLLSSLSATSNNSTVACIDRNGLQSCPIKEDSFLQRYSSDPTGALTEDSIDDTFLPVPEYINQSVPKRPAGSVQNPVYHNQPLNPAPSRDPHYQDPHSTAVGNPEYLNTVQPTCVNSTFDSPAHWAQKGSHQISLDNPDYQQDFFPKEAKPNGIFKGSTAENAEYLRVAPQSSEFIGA

[8] = target: Ephrin type-A receptor 5 (Homo sapiens) (UniProt P54756); test: Selectivity interaction (Upstate Kinase Profiler service (Millipore)) EUB0000056c EPHA5; settings: at 1 µM
[9] = target: Fibroblast growth factor receptor 1 (Homo sapiens, UniProt P11362); test: (§1) Selectivity interaction (ProQinase) EUB0000171b FGFR1
Sequence of Fibroblast growth factor receptor 1 (P11362 22-822 limits assumed): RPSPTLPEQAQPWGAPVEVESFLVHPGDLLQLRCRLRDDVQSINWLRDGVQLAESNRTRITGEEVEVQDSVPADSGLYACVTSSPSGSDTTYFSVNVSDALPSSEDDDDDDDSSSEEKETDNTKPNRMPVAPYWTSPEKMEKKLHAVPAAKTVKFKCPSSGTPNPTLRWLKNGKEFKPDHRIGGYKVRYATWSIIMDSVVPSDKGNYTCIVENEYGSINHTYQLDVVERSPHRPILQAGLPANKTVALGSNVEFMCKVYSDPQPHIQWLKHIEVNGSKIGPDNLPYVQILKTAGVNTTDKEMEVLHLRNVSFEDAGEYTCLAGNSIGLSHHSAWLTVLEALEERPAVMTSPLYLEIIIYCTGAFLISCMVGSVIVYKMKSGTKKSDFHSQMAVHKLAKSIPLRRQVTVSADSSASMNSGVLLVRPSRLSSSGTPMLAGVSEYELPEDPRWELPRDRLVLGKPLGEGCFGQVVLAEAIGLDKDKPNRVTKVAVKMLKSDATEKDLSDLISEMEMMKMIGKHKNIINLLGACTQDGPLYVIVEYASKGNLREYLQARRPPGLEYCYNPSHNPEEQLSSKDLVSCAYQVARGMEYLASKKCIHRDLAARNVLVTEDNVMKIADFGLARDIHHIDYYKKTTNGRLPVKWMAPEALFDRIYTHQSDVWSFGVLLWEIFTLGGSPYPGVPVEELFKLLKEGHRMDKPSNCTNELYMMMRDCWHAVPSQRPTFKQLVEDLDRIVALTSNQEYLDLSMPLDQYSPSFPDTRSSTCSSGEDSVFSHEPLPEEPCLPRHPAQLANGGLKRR

[10] = test system: Fibroblast growth factor receptor 1 (Homo sapiens), P11362 [V561M]; test: as §1
Sequence of Fibroblast growth factor receptor 1 (Homo sapiens), P11362 [V561M] (P11362 whole entry V561M): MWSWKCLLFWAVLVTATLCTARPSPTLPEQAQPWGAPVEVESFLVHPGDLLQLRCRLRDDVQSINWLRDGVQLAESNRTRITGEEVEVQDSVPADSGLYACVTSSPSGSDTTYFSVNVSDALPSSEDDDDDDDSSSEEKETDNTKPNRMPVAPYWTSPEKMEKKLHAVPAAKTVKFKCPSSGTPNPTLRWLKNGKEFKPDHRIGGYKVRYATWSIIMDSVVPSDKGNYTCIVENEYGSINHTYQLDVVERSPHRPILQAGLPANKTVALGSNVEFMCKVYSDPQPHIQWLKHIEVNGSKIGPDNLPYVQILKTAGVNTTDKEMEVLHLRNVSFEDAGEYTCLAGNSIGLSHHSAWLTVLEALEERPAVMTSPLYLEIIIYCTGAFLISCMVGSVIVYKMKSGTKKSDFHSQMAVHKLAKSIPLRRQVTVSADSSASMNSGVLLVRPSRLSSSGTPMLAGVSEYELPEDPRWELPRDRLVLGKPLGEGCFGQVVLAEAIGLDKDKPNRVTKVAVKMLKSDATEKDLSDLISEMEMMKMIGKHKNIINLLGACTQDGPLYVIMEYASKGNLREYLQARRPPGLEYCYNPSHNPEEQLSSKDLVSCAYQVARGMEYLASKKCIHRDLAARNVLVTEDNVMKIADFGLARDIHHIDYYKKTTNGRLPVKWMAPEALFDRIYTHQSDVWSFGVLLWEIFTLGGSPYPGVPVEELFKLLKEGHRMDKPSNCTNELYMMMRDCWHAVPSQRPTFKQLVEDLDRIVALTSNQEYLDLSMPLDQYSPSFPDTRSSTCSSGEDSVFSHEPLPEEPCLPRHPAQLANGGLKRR

[11] = target: T4, Mitogen-activated protein kinase kinase kinase kinase 2 (Homo sapiens) (UniProt Q12851); test: Selectivity interaction (KinomeScan (DiscoverX)) EUB0000618a MAP4K2; settings: at 10 µM
T4 sequence (whole entry): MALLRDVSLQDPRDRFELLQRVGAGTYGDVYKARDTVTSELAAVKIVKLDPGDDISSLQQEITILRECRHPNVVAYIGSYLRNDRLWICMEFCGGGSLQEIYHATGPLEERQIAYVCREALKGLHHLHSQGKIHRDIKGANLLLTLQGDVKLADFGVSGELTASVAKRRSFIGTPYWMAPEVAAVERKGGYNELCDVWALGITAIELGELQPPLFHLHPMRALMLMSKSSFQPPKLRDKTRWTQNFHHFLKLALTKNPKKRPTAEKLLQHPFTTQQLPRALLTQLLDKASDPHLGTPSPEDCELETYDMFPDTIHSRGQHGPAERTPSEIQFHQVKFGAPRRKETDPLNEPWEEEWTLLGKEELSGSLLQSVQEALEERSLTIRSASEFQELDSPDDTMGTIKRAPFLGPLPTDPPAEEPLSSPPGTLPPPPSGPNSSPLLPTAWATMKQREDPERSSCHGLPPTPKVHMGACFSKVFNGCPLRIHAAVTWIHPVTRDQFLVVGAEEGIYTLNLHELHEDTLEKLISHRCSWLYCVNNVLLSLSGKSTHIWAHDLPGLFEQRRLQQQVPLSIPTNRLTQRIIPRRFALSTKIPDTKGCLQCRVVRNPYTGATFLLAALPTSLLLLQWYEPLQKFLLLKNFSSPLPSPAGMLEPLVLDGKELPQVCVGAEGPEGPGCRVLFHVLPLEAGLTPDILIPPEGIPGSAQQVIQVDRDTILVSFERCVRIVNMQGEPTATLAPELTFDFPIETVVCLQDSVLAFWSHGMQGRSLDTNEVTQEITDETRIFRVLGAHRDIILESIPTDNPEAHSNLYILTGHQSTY

[12] = target: Serine/threonine-protein kinase MARK2 (Homo sapiens) (UniProt Q7KZI7); test: Selectivity interaction (ActivX KiNativ screen (kinase selectivity in THP-1 cell lysates)) EUB0000639a MARK2; type: subcellular; settings: lysate, at 1 µM
Sequence of Serine/threonine-protein kinase MARK2 (Homo sapiens) (Q7KZI7 whole entry): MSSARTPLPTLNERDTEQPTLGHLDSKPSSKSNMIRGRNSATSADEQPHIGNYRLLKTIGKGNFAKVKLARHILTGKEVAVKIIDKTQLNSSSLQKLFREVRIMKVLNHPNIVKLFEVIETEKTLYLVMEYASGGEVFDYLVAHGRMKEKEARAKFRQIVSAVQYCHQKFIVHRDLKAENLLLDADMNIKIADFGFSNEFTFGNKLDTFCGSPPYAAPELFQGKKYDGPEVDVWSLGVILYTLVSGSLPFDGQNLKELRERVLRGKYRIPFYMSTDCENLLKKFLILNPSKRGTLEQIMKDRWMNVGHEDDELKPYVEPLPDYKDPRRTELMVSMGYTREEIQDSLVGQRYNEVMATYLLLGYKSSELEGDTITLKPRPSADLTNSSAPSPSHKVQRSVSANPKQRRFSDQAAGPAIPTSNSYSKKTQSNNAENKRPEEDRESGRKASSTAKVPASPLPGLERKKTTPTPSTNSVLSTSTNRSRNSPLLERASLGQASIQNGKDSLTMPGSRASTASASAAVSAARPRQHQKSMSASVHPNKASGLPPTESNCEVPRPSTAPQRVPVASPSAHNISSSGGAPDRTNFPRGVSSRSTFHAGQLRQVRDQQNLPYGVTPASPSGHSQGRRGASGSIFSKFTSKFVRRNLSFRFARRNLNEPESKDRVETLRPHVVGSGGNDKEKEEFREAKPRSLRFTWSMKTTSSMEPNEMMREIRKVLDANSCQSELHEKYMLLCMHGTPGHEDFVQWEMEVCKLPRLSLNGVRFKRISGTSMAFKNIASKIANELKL

Sequence of Serine/threonine-protein kinase OSR1 (Homo sapiens) (O95747 2-527 limits assumed): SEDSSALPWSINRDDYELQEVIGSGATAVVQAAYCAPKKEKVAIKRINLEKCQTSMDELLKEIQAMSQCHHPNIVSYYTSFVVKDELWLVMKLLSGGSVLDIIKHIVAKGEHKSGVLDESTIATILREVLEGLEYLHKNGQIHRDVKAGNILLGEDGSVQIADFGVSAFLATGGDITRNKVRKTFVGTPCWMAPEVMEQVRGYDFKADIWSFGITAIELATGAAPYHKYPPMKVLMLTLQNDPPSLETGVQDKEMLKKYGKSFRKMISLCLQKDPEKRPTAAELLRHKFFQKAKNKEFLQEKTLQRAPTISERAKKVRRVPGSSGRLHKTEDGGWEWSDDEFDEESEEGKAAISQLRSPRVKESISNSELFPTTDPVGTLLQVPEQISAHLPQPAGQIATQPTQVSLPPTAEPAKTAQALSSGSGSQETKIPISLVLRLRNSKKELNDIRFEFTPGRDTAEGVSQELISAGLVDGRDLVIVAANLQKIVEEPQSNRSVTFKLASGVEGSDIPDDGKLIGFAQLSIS

COc1cc(N(C)c2ccnc3ccc(C(F)(F)F)cc23)cc(OC)c1OC
% binding [1]: 78%

COCC(=O)NC/C=C/c1ccc2ncnc(Nc3ccc(Oc4ccc(C)nc4)c(C)c3)c2c1 [CP-724714]
% of control [2]: 100%

C=CC(=O)Nc1cc(-n2c(=O)ccc3cnc4ccc(-c5ccc(NS(C)(=O)=O)cc5)cc4c32)ccc1C
% of control ([3]; at 1 µM): 70% | % of control ([3]; at 10 µM): 100%

Nc1cnc(N2CCc3cc(S(=O)(=O)Nc4c(F)cc(Cl)cc4F)cc(N4CCCC4=O)c32)nc1 [TP-020n]
% of control [4]: 94%

O=C(NOC[C@H](O)CO)c1ccc(F)c(F)c1Nc1ccc(I)cc1F
% of control [5]: 100% | % of control [6]: 100%

Cc1cc([C@@H](C)Nc2ccccc2C(=O)O)c2nc(N3CCOCC3)cc(=O)n2c1 [AZD-6482]
% of control [7]: 100%

Cc1ccc(-c2ccc3c(ccc4sc5c(c43)NC[C@@H](C)NC5=O)n2)cn1
% of inhibition [8]: 6%

C=CC(=O)Nc1cccc(C(=O)Nc2ccc(Nc3cc(-c4[nH]c(SC)nc4C)ccn3)cc2)c1
% of control ([9]; at 1 µM): 105% | % of control ([9]; at 5 µM): 87% | % of control ([10]; at 1 µM): 99% | % of control ([10]; at 5 µM): 65%

O[C@H]1CC[C@H](Nc2ncc3nc(Nc4c(F)cc(F)cc4F)n([C@H]4CCOC4)c3n2)CC1
% of control [11]: 91%

CC[C@@H]1[C@H](F)C(=O)N[C@@H]1COc1nccc2cc(C(N)=O)c(OC)cc12 [ZIMLOVISERTIB]
% of inhibition [12]: 23.8%
